From patent US9457063B2, “Method for treatment of diabetic vascular leakage-induced disease using C-peptide” (KANGWON NATIONAL UNIVERSITY UNIVERSITY-INDUSTRY COOPERATION …, priority 2012, dated 2016)
“And” between values parts separate entries of the source, which are not always exact repeats. Equal entries are not always repeated.

Tests used:
HUVECs [1] = assay: VEGF-induced intracellular ROS generation in HUVECs; format: cell-based, human; details: for VEGF-induced intracellular ROS generation: HUVECs pre-incubated 30 min with 1 mM NAC, 0.5 mM Trolox or 5 μM BAPTA-AM, 10 ng/ml VEGF 10 min
Experimental: HUVECs were isolated from the human umbilical cord vein according to a well known process, and cells from passages 3 to 6 were used in the following experiments. Cells were inoculated into M199 culture media (supplemented with 20% FBS, 3 ng/ml bFGF, 5 U/ml heparin, 100 U/ml penicillin, and 100 μg/ml streptomycin) in 2% gelatin-coated coverslips, dishes, or plates, and grown at 37° C. in a humidified 5% CO2 incubator.
For experiments, cells were incubated for 6 h in low-serum medium (M199 supplemented as above, but with only 1% FBS), and treated for a suitable time with 10 ng/ml VEGF in the presence or absence of various concentrations of C-peptide.
In detail, HUVECs inoculated into coverslips were treated with VEGF and C-peptide, and incubated with 10 μM 2′,7′-dichlorodihydrofluorescein diacetate (Molecular Probes, Eugene, Oreg.) in phenol red-free media for the last 10 min. The coverslips were mounted on a perfusion chamber, and labeled cells were rapidly scanned by confocal microscopy. The level of intracellular ROS was determined by comparing the fluorescence intensities of treated cells with those of control cells, and expressing this as a fold difference.

HUVECs [2] = assay: Intracellular Ca2+ levels in HUVECs (Fluo-4 AM); format: cell-based, human; details: HUVECs labeled with 1 μM Fluo-4 AM; for effect on VEGF-induced changes in intracellular Ca2+: n=3
Experimental: To monitor intracellular Ca^2+ levels, cells inoculated into coverslips were incubated with 1 μM Fluo-4 AM for 30 min. The coverslips were mounted on perfusion chambers and scanned every 10 sec by confocal microscopy (FV-300). Serial images from the scan were processed to analyze changes in intracellular Ca^2+ levels at the single-cell level. Data were expressed as the relative fluorescence intensity (RFI).

[3] = tested on: microvessels of the diabetic mouse retina; assay: Disassembly of adherens junctions (VE-cadherin) in retina of diabetic mice; format: in vivo; details: intravitreal 2 μl C-peptide, n=3
Experimental: Diabetic mice were intravitreally injected with 2 μl C-peptide into one eye (Diabetic+C-Pep) and an equal volume of PBS into the contralateral eye (Diabetic, n=3). Normal (non-diabetic) mice also were intravitreally injected with 2 μl PBS into eyes (Normal, n=3).
VE-cadherin was stained in the retina and visualized using confocal microscopy as described below.
Microvessels were stained for VE-cadherin in retinal whole mounts. In detail, isolated retinas were fixed in 100% ethanol for 30 min, delipidated in 100% ice-cold acetone for 10 min, and permeabilized with 0.3% Triton X-100 for 1 hr. The retinas were incubated with an anti-VE-cadherin antibody (Enzo Life Sciences, Farmingdale, N.Y., USA) at 4° C. for 24 hrs, and probed with goat anti-mouse FITC (Sigma) at 4° C. for 24 hrs, followed by visualizing VE-cadherin by confocal microscopy (FV-300, Olympus).

FIG. 6A = assay: FIG. 6A
Description: Table printed on a drawing sheet, FIG. 6A
Footnotes: Data are means ± S.D. / ***p<0.001 vs. control mice.
FIG. 6D is a graph in which serum C-peptide levels are plotted against time after intravitreal injection; and
First reader's note: Each column is a mouse group; the cells give mean ± S.D. of the serum C-peptide level.

HUVECs [4] = assay: VEGF-induced disassembly of VE-cadherin adherens junctions in HUVECs; format: cell-based, human; details: for VEGF-induced disassembly of VE-cadherin: HUVECs 90 min, 10 ng/ml VEGF with 0.5 nM C-peptide, 1 mM NAC or 0.5 mM Trolox, n=3
Experimental: Confluent cell layers (HUVECs) in 6-well plates were incubated with C-peptide or an ROS scavenger for 30 min, and then treated with VEGF for 90 min at 37° C. The treated cells were rinsed with PBS, and fixed with 3.7% formaldehyde in PBS for 30 min. The cells were permeabilized with 0.2% Triton X-100 in PBS for 30 min, and stained overnight at 4° C. with a monoclonal VE-cadherin antibody (Santa Cruz Biotechnology, Santa Cruz, Calif.) in PBS. Thereafter, the cells were probed with goat anti-mouse FITC (fluorescein isothiocyanate; Sigma, St. Louis, Mo.), followed by visualizing VE-cadherin by confocal microscopy.

HUVECs [5] = assay: VEGF-induced stress fiber formation in HUVECs (rhodamine-phalloidin); format: cell-based, human; details: HUVECs 1 hr; 10 ng/ml VEGF with 0.5 nM C-peptide, 1 mM NAC or 0.5 mM Trolox; n=3
Experimental: HUVECs were grown on gelatin-coated round coverslips in 12-well culture plates, […], alone or in combination, or with 10 ng/ml VEGF in the presence of an ROS scavenger, that is, 1 mM NAC or 0.5 mM Trolox for 1 hr at 37° C. The cells were rapidly rinsed with PBS and fixed with 3.7% formaldehyde in PBS for 30 min. Then, the cells were permeabilized with 0.2% Triton X-100 in PBS for 30 min, and stained with rhodamine-palloidin (Molecular Probes) in PBS for 1 h. The resulting stained cells were mounted on a glass slide using a mounting solution, followed by visualizing actin filaments by confocal microscopy.

[6] = Serum C-peptide levels during subcutaneous mini-osmotic pump delivery; format: in vivo; details: diabetic mice, 35 pmol/min/kg, n=7
Experimental: After implantation of a mini-osmotic pump for delivering C-peptide, blood c-peptide levels were measured. One group of diabetic mice (n=7) was subcutaneously implanted with ALZET® mini-osmotic pump 2004 (DURECT, Cupertino, Calif.) containing C-peptide in PBS with a delivery rate of 35 pmol/min/kg. The other diabetic (n=7) and control groups (n=7) underwent sham operations. During the continuous subcutaneous C-peptide perfusion, serum C-peptide levels were measured using a C-peptide Enzyme Immunoassay Kit (RayBiotech, Norcross, Ga.).

[7] = C-peptide levels in the vitreous fluid after intravitreal injection; format: in vivo, mice; details: mouse, 7.5 ng, after intravitreal injection of 2 μl C-peptide (3.7 μg/ml), maintained for 12 hrs, physiological range, read-out: C-peptide concentrations in the vitreous chamber
Experimental: After intravitreal injection, C-peptide levels in the vitreous fluid were monitored with time. In this regard, C-peptide was intravitreally injected at a dose of 7.5 ng, after which C-peptide in the vitreous chamber was quantitated using a human C-peptide ELISA kit (Millipore Co. Billerica, Mass.) (n=4).

[8] = tested on: retinas of streptozotocin diabetic mice; assay: Retinal vascular leakage in streptozotocin diabetic mice (FITC-dextran fluorescein angiography); format: in vivo; details: for retinal microvascular leakage (extravasation of FITC-dextran) in diabetic mice: intravitreal injection, VEGF antibody 100 μg/ml, N-acetyl-cysteine 81.5 mg/ml, Trolox 125 μg/ml, 2 μl C-peptide, 24 hrs post-injection, n=6, p<0.01
Experimental: Diabetic mice were generated by a single intraperitoneal injection of streptozotocin (150 mg/kg body weight) freshly prepared in 100 mM citrate buffer (pH 4.5). All mice were supplied with 10% sucrose overnight. Sufficient hyperglycemia was observed 2 days post-injection, as measured by the ACCU-CHEK® Active blood glucose monitor (Roche Diagnostics, Germany). One week after the streptozotocin injection, mice with non-fasting blood glucose levels greater than 16 mM, polyuria, and glucosuria were defined as diabetic and used for the experiments.
The diabetic mice were intravitreally injected with 2 μl of C-peptide (3.7 μg/ml) in PBS into one eye, and an equal volume of PBS was injected into the contralateral eye (n=6 per group). Normal (non-diabetic) mice were also intravitreally injected with 2 μl of PBS into eyes (Normal; n=6 per group). C-peptide concentrations in the vitreous chamber were maintained within the physiological range (0.9 to 2.0 nM) for 12 hrs after intravitreal injection.
After 24 hrs post injection, retina leakage was quantified using fluorescein angiography. In this regard, mice were injected with 1.25 mg of 500-kDa FITC-dextran (Sigma-Aldrich) into the left ventricle and the dye was allowed to circulate for 5 min. Eyes were enucleated and immediately fixed with 4% paraformaldehyde for 45 min. Retinas were dissected, cut in the Maltese cross-configuration, and flat-mounted onto slide glass. Retinas were observed using the confocal microscope. Retina leakage was quantitatively analyzed by determining the intensities of extravasated FITC-dextran from whole retina tissues (n=6 per group) using the FV-300 software.
Diabetic mice were intravitreally injected with a monoclonal VEGF antibody (100 μg/ml), N-acetyl-cysteine (81.5 mg/ml), or Trolox (125 μg/ml) into one eye, and an equal volume of PBS was injected into the contralateral eye (n=6 per group). Twenty four hrs post-injection, retinal vascular leakage was quantified using fluorescein angiography. For the experiment, mice were injected with 1.25 mg of 500-kDa FITC-dextran (Sigma) into the left ventricle and the dye was allowed to circulate for 5 min. The eyes were enucleated and immediately fixed with 4% paraformaldehyde for 45 min. Retinas were dissected, cut in the Maltese cross-configuration, and flat-mounted onto slide glass before observation using confocal microscopy. Retinal vascular leakage was quantitatively analyzed by determining the intensities of extravasated FITC-dextran from whole retina tissues (n=6 per group) using confocal microscopy (FV-300, Olympus, Tokyo, Japan), and applying the intensity data to the FV-300 software.

[9] = tested on: skin of streptozotocin diabetic mice; assay: Miles vascular permeability assay in skin of streptozotocin diabetic mice; format: in vivo
Experimental: A Miles vascular permeability assay was performed in diabetic mice as follows. After 2 to 3 days post-shaving, mice were anesthetized and intravenously injected with 150 μl of a 1% Evans blue solution. After 15 min, 15 μl of a VEGF (10 ng) solution containing 0, 7.5, or 15 ng of C-peptide was injected intradermally into the shaved skin of the mice (n=12 per group). PBS was injected for the control (n=12). An area of skin that included the blue spot resulting from leakage of the dye was dissected, and the Evans blue dye was eluted from the dissected skin by incubation with formamide at 56° C. for 2 days. The amount of dye was quantitated by spectrophotometry at 620 nm.

| Structure (SMILES) | VEGF-induced intracellular ROS generation (HUVECs [1]) | effect on VEGF-induced changes in intracellular Ca2+ (HUVECs [2]) | diabetes-induced disassembly of adherens junctions in retinal microvessels [3] | concentration at which complete prevention of VEGF-induced ROS generation was observed (HUVECs [1]; HUVECs pre-treated 30 min, 10 ng/ml VEGF) [nM] | VEGF-induced generation of intracellular ROS (HUVECs [1]; HUVECs pre-treated with various concentrations of C-peptide 30 min, 10 ng/ml VEGF, dose-dependent) | Serum C-peptide (nM) (4 weeks after C-peptide delivery) (FIG. 6A) | Serum C-peptide (nM) (at 1 week of diabetes induction) (FIG. 6A) | VEGF-induced disassembly of VE-cadherin (HUVECs [4]) | VEGF-induced decrease in the fluorescence intensity of the adherens junctions (HUVECs [4]; HUVECs, VE-cadherin histograms (RFI), FIG. 4B) | VEGF-induced stress fiber formation (HUVECs [5]) | serum C-peptide level [6] | level at time molar [7] [nM] | extravasation of FITC-dextran (vascular leakage) in the retinas of diabetic mice ([8]; intravitreal 2 μl C-peptide (3.7 μg/ml), 24 hrs post injection, vs PBS contralateral eye, n=6, p<0.05) | retinal microvascular leakage (extravasation of FITC-dextran) in diabetic mice [8] | effect of substance alone on intracellular Ca2+ (HUVECs [2]; no VEGF) | VEGF-induced vascular permeability (Evans blue leakage) in skin ([9]; intradermal VEGF (10 ng) with 7.5 or 15 ng C-peptide, dose-dependent, n=12, p<0.01) | vascular permeability with C-peptide alone ([9]; intradermal, no VEGF) |
| --- | --- | --- | --- | --- | --- | --- | --- | --- | --- | --- | --- | --- | --- | --- | --- | --- | --- |
| CC(=O)OCOC(=O)CN(CC(=O)OCOC(C)=O)c1ccccc1OCCOc1ccccc1N(CC(=O)OCOC(C)=O)CC(=O)OCOC(C)=O [BAPTA-AM, 1,2-bis(2-aminophenoxy)ethane-N,N,N-′,N′-tetraacetic acid tetrakis(acetoxymethyl ester), reference compound] | blocked | blocked |  |  |  |  |  |  |  |  |  |  |  |  |  |  |  |
| CC(C)C[C@H](NC(=O)[C@H](C)NC(=O)[C@H](CC(C)C)NC(=O)[C@@H]1CCCN1C(=O)[C@H](CCC(N)=O)NC(=O)[C@H](CC(C)C)NC(=O)[C@H](CO)NC(=O)CNC(=O)[C@H](C)NC(=O)CNC(=O)[C@@H]1CCCN1C(=O)CNC(=O)CNC(=O)CNC(=O)[C@H](CC(C)C)NC(=O)[C@H](CCC(=O)O)NC(=O)[C@@H](NC(=O)[C@H](CCC(N)=O)NC(=O)CNC(=O)[C@@H](NC(=O)[C@H](CCC(N)=O)NC(=O)[C@H](CC(C)C)NC(=O)[C@H](CC(=O)O)NC(=O)[C@H](CCC(=O)O)NC(=O)[C@H](C)NC(=O)[C@@H](N)CCC(=O)O)C(C)C)C(C)C)C(=O)N[C@@H](CCC(=O)O)C(=O)NCC(=O)N[C@@H](CO)C(=O)N[C@@H](CC(C)C)C(=O)N[C@@H](CCC(N)=O)C(=O)O [C-peptide] |  | had no effect | inhibited | 0.5 | inhibited | 1.50 ± 0.89 nM and 2.40 ± 0.93 nM | 1.44 ± 0.53 | inhibited | recovered | sufficiently suppressed | elevated to a normal value | 0.9 to 2 | blocked | blocked | did not increase | suppressed | did not cause a significant change |
| CC(=O)N[C@@H](CS)C(=O)O [NAC, N-acetyl-L-cysteine, reference compound] | abolished |  |  |  |  |  |  | prevented |  | inhibited |  |  |  | prevented |  |  |  |
| Cc1c(C)c2c(c(C)c1O)CCC(C)(C(=O)O)O2 (centres unmarked) [Trolox, reference compound] | abolished |  |  |  |  |  |  | prevented |  | inhibited |  |  |  | prevented |  |  |  |
